Results reported in patent publication US7528284B2, “Method for producing xylylenediamine (XDA)” (BASF Aktiengesellschaft, priority 2003, dated 2009).

Assay: Investigations of solubility of IPN in different solvents
Format: physicochemical
Procedure: Investigations of Solubility of IPN in Different Solvents
At 60° C., the solubility of IPN in mesitylene or pseudocumene is in each case below 10% by weight.

N#Cc1cccc(C#N)c1 [IPN, 1,3-dicyanobenzene]
solubility of IPN in NMP (at 60° C.): approx. 26 % by weight
solubility of IPN in NMP (at 90° C.): approx. 41 % by weight
solubility of IPN in mesitylene (at 60° C.): below 10 % by weight
solubility of IPN in mesitylene (at 90° C.): 12 % by weight
solubility of IPN in pseudocumene (at 60° C.): below 10 % by weight
solubility of IPN in pseudocumene (at 90° C.): 20 % by weight
